Data set [1] has as its system advanced HCC. The experiment in a line: Phase II multi-center, randomized, double-blind, placebo-controlled study of VT-122 or placebo on a background of stable-dose sorafenib (Example 1). The class given is in vivo, human. As to conditions: advanced HCC patients. Here is the method: This was a multi-center, randomized, double-blind, double-dummy, placebo-controlled study.
VT-122 (Vicus Therapeutics, Morristown N.J.): patients entered a three week dose escalation period, with propranolol maximum at 120 mg, and etodolac maximum at 600 mg. VT-122 was administered in split doses in the morning and evening.
After the three week dose escalation period, patients were to continue therapy for four four-week cycles.
Secondary endpoint=lean body mass, overall survival, muscle function, symptom assessment.

Data set [2] deals with advanced HCC. In words: Randomized investigator initiated trial: sorafenib alone (Group S) vs sorafenib after one week of propranolol and etodolac (Group SPE) (Example 2). The class given is in vivo, human. Here is the method:
Data on the use of the combination in advanced hepatocellular carcinoma patients are lacking.
Patients with advanced HCC were eligible for this randomized investigator initiated trial. Patients received propranolol (P) and etodolac (E) (or “PE”) daily for one week prior to starting sorafenib (S). PE was administered to maximize the therapeutic benefit and minimize side effects. The primary endpoint was survival.
Twenty-four patients were randomized to either sorafenib alone (Group S) or sorafenib after one week of propranolol and etodolac (Group SPE). Population: median age, 54.6 years; 74% male; BMI, 23.0; C-reactive protein (CRP), 69.3; cirrhosis (8.8%), fibrosis (50%), hepatitis B positive (85%). The patient population is summarized:
The study design is schematically illustrated in FIG. 6. Patients received PE daily for one week prior to starting S.
Dosing for PE was as follows: • 8 AM 20 mg propranolol+300 mg etodolac • 3 PM 20 mg propranolol • 8 PM 300 mg etodolac

The record followed here is patent US9889120B2, “Combination drug therapies for cancer and methods of making and using them” (Vicus Therapeutics, LLC, priority 2016, dated 2018).

Turning to `CNC(=O)c1cc(Oc2ccc(NC(=O)Nc3ccc(Cl)c(C(F)(F)F)c3)cc2)ccn1` [Sorafenib, 4-[4-[[4-chloro-3-(trifluoromethyl)phenyl]carbamoylamino]phenoxy]-N-methyl-pyridine-2-carboxamide], the “Kaplan-Meier median survival (95% CI), days” value in data set [1] is on record as 267 (32, NR) days. Further, the “percent of patients with loss in weight” value in data set [2] (FIG. 8) came out at 50%. In addition, the “12 Month Survival, Percent” value in data set [2] (N=12 per group, table) stood at 25.0%. Besides, in data set [2] (advanced HCC patients), the “Hand foot skin reaction (HFS) grade 2 or 3, percent of patients” value was 67% and the Median survival is recorded as 10 months. Also, the Twelve month survival in data set [2] (advanced HCC patients, 12 per group) is 25.0%. Further, the “12 Month Survival, Alive” value in data set [2] (number of patients alive of N=12) is listed as 3.
